Data taken from patent US11453703B2, “Heterotandem bicyclic peptide complexes” (BicycleTX Limited, priority 2018, dated 2022).

Target: CD137 (Homo sapiens, UniProt Q07011)
Experiment: CD137 reporter assay, co-culture with PD-L1 expressing cell line RKO
Type: cell-based
Set-up: host or cells: Jurkat reporter cells
Settings: tumour target PD-L1, co-culture with RKO, 6 h
Procedure: Culture medium referred to as R1 media is prepared by adding 1% FBS to RPMI-1640 (component of Promega kit CS196005). Serial dilutions of test articles in R1 are prepared in a sterile 96 well-plate. Use 25 μl per well of test articles or R1 (as a background control) to designated wells in white cell culture plate. Tumour cells* are harvested and resuspended at a concentration of 400,000 cells/mL in R1 media. Twenty five (25) μL/well tumour cells are used in white cell culture plate. Jurkat cells (Promega kit CS196005, 0.5 mL) are thawed in the water bath and then added to 5 ml pre-warmed R1 medium. Twenty five (25) μL/well Jurkat cells are used in white cell culture plate. Incubate the cells and test articles for 6h at 37° C., 5% CO2. At the end of 6 h, add 75 μl/well Bio-Glo™ (Promega) and incubate for 10 min before reading luminescence in a plate reader (Clariostar, BMG). The fold change relative to cells (Jurkat cells+Cell line used in co-culture) is calculated and plotted in GraphPad Prism as log(agonist) vs response to determine EC50 (nM) and Fold Induction over background (Max)

CD137, sequence (Q07011 24-255): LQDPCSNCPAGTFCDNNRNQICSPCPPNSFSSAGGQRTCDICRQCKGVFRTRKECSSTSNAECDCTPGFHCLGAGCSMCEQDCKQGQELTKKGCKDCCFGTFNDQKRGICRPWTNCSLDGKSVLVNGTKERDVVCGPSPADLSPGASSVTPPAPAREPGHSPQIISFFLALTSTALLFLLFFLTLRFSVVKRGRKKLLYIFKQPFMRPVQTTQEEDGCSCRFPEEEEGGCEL

Structure (SMILES) | EC50 | Fold Induction over Background
CCCC[C@@H]1NC(=O)[C@H](Cc2ccc(O)cc2)NC(=O)[C@@H]2CCCN2C(=O)[C@H](CC(=O)O)NC(=O)[C@H](C)NC(=O)[C@H](Cc2ccccc2)NC(=O)[C@@H]2CSCCC(=O)N3CN(CN(C3)C(=O)CCSC[C@@H](C(=O)N[C@@H](CNC(=O)Cn3cc(CCC(=O)NCCCC[C@@H]4NC(=O)[C@H](CCC(N)=O)NC(=O)[C@@H]5CSCCC(=O)N6CN(CN(C6)C(=O)CCSC[C@@H](C(=O)N6CCC[C@H]6C(=O)N[C@@H](CO)C(=O)N[C@@H](Cc6c[nH]cn6)C(N)=O)NC(=O)[C@H](CC(C)C)NC(=O)[C@H](Cc6c[nH]cn6)NC(=O)[C@H](CC(C)C)NC4=O)C(=O)CCSC[C@H](NC(=O)[C@H](CCCCN)NC(=O)[C@H](CC(=O)O)NC(=O)[C@H](CO)NC(C)=O)C(=O)N[C@@H](CO)C(=O)N[C@@H](C)C(=O)NCC(=O)N[C@@H](Cc4c[nH]c6ccccc46)C(=O)N[C@@H](CC(C)C)C(=O)N[C@@H]([C@@H](C)O)C(=O)N[C@@H](CCSC)C(=O)N5)nn3)C(N)=O)NC1=O)C(=O)CCSC[C@H](NC(C)=O)C(=O)N[C@@H](CC(C)(C)C)C(=O)N1CCC[C@H]1C(=O)N[C@@H](CCC(=O)O)C(=O)N[C@H](C)C(=O)N1CCC[C@H]1C(=O)N[C@@H](Cc1ccc(O)cc1)C(=O)N2 [BCY11378] | 80 nM | 3 fold
CCCC[C@@H]1NC(=O)[C@H](Cc2ccc(O)cc2)NC(=O)[C@@H]2CCCN2C(=O)[C@H](CC(=O)O)NC(=O)[C@H](C)NC(=O)[C@H](Cc2ccccc2)NC(=O)[C@@H]2CSCCC(=O)N3CN(CN(C3)C(=O)CCSC[C@@H](C(=O)N[C@@H](C)C(N)=O)NC1=O)C(=O)CCSC[C@H](NC(C)=O)C(=O)N[C@@H](CC(C)(C)C)C(=O)N1CCC[C@H]1C(=O)N[C@@H](CCCCNC(=O)Cn1cc(CCC(=O)NCCCC[C@@H]3NC(=O)[C@H](CCC(N)=O)NC(=O)[C@@H]4CSCCC(=O)N5CN(CN(C5)C(=O)CCSC[C@@H](C(=O)N5CCC[C@H]5C(=O)N[C@@H](CO)C(=O)N[C@@H](Cc5c[nH]cn5)C(N)=O)NC(=O)[C@H](CC(C)C)NC(=O)[C@H](Cc5c[nH]cn5)NC(=O)[C@H](CC(C)C)NC3=O)C(=O)CCSC[C@H](NC(=O)[C@H](CCCCN)NC(=O)[C@H](CC(=O)O)NC(=O)[C@H](CO)NC(C)=O)C(=O)N[C@@H](CO)C(=O)N[C@@H](C)C(=O)NCC(=O)N[C@@H](Cc3c[nH]c5ccccc35)C(=O)N[C@@H](CC(C)C)C(=O)N[C@@H]([C@@H](C)O)C(=O)N[C@@H](CCSC)C(=O)N4)nn1)C(=O)N[C@H](C)C(=O)N1CCC[C@H]1C(=O)N[C@@H](Cc1ccc(O)cc1)C(=O)N2 [BCY11376] |  | 9 fold
CCCC[C@@H]1NC(=O)[C@H](Cc2ccc(O)cc2)NC(=O)[C@@H]2CCCN2C(=O)[C@H](CC(=O)O)NC(=O)[C@H](C)NC(=O)[C@H](Cc2ccccc2)NC(=O)[C@@H]2CSCCC(=O)N3CN(CN(C3)C(=O)CCSC[C@@H](C(=O)N[C@@H](CNC(=O)CCOCCOCCOCCOCCOCCOCCOCCOCCOCCOCCOCCOCCn3cc(CCC(=O)NCCCC[C@H](NC(=O)CN(C)C(=O)CN(C)C(=O)CN(C)C(=O)CN(C)C(=O)CN(C)C(=O)CN(C)C(=O)CN(C)C(=O)CN(C)C(=O)CN(C)C(=O)CN(C)C(=O)[C@@H]4CSCCC(=O)N5CN6CN(C5)C(=O)CCSC[C@H](NC(=O)[C@H](CCSC)NC(=O)[C@H]([C@@H](C)O)NC(=O)[C@H](CC(C)C)NC(=O)[C@H](Cc5c[nH]c7ccccc57)NC(=O)CNC(=O)[C@H](C)NC(=O)[C@H](CO)NC(=O)[C@@H](NC(=O)[C@H](CCCCN)NC(=O)[C@H](CC(=O)O)NC(=O)[C@@H](N)CO)CSCCC6=O)C(=O)N[C@@H](CCC(N)=O)C(=O)N[C@@H](CCCCN)C(=O)N[C@@H](CC(C)C)C(=O)N[C@@H](Cc5c[nH]cn5)C(=O)N[C@@H](CC(C)C)C(=O)N4)C(N)=O)nn3)C(N)=O)NC1=O)C(=O)CCSC[C@H](NC(C)=O)C(=O)N[C@@H](CC(C)(C)C)C(=O)N1CCC[C@H]1C(=O)N[C@@H](CCC(=O)O)C(=O)N[C@H](C)C(=O)N1CCC[C@H]1C(=O)N[C@@H](Cc1ccc(O)cc1)C(=O)N2 [BCY10581] | 18 nM | 6 fold
CCCC[C@@H]1NC(=O)[C@H](Cc2ccc(O)cc2)NC(=O)[C@@H]2CCCN2C(=O)[C@H](CC(=O)O)NC(=O)[C@H](C)NC(=O)[C@H](Cc2ccccc2)NC(=O)[C@@H]2CSCCC(=O)N3CN(CN(C3)C(=O)CCSC[C@@H](C(=O)N[C@@H](C)C(N)=O)NC1=O)C(=O)CCSC[C@H](NC(C)=O)C(=O)N[C@@H](CC(C)(C)C)C(=O)N1CCC[C@H]1C(=O)N[C@@H](CCCCNC(=O)CCOCCOCCOCCOCCOCCOCCOCCOCCOCCOCCOCCOCCn1cc(CCC(=O)NCCCC[C@@H]3NC(=O)[C@H](CCC(N)=O)NC(=O)[C@@H]4CSCCC(=O)N5CN(CN(C5)C(=O)CCSC[C@@H](C(=O)N5CCC[C@H]5C(=O)N[C@@H](CO)C(=O)N[C@@H](Cc5c[nH]cn5)C(N)=O)NC(=O)[C@H](CC(C)C)NC(=O)[C@H](Cc5c[nH]cn5)NC(=O)[C@H](CC(C)C)NC3=O)C(=O)CCSC[C@H](NC(=O)[C@H](CCCCN)NC(=O)[C@H](CC(=O)O)NC(=O)[C@H](CO)NC(C)=O)C(=O)N[C@@H](CO)C(=O)N[C@@H](C)C(=O)NCC(=O)N[C@@H](Cc3c[nH]c5ccccc35)C(=O)N[C@@H](CC(C)C)C(=O)N[C@@H]([C@@H](C)O)C(=O)N[C@@H](CCSC)C(=O)N4)nn1)C(=O)N[C@H](C)C(=O)N1CCC[C@H]1C(=O)N[C@@H](Cc1ccc(O)cc1)C(=O)N2 [BCY11017] |  | 4 fold
CCCC[C@@H]1NC(=O)[C@H](Cc2ccc(O)cc2)NC(=O)[C@@H]2CCCN2C(=O)[C@H](CC(=O)O)NC(=O)[C@H](C)NC(=O)[C@H](Cc2ccccc2)NC(=O)[C@@H]2CSCCC(=O)N3CN(CN(C3)C(=O)CCSC[C@@H](C(=O)N[C@@H](CNC(=O)CCOCCOCCOCCOCCOCCOCCOCCOCCOCCOCCOCCOCCn3cc(CCC(=O)NCCCC[C@@H]4NC(=O)[C@H](CCC(N)=O)NC(=O)[C@@H]5CSCCC(=O)N6CN(CN(C6)C(=O)CCSC[C@H](NC(=O)[C@H](CCCCN)NC(=O)[C@H](CC(=O)O)NC(=O)[C@@H](N)CO)C(=O)N[C@@H](CO)C(=O)N[C@@H](C)C(=O)NCC(=O)N[C@@H](Cc6c[nH]c7ccccc67)C(=O)N[C@@H](CC(C)C)C(=O)N[C@@H]([C@@H](C)O)C(=O)N[C@@H](CCSC)C(=O)N5)C(=O)CCSC[C@@H](C(N)=O)NC(=O)[C@H](CC(C)C)NC(=O)[C@H](Cc5c[nH]cn5)NC(=O)[C@H](CC(C)C)NC4=O)nn3)C(N)=O)NC1=O)C(=O)CCSC[C@H](NC(C)=O)C(=O)N[C@@H](CC(C)(C)C)C(=O)N1CCC[C@H]1C(=O)N[C@@H](CCC(=O)O)C(=O)N[C@H](C)C(=O)N1CCC[C@H]1C(=O)N[C@@H](Cc1ccc(O)cc1)C(=O)N2 [BCY10582] | 28 nM | 4 fold
CCCC[C@@H]1NC(=O)[C@H](Cc2ccc(O)cc2)NC(=O)[C@@H]2CCCN2C(=O)[C@H](CC(=O)O)NC(=O)[C@H](C)NC(=O)[C@H](Cc2ccccc2)NC(=O)[C@@H]2CSCCC(=O)N3CN(CN(C3)C(=O)CCSC[C@@H](C(=O)N[C@@H](C)C(N)=O)NC1=O)C(=O)CCSC[C@H](NC(C)=O)C(=O)N[C@@H](CC(C)(C)C)C(=O)N1CCC[C@H]1C(=O)N[C@@H](CCC(=O)O)C(=O)N[C@H](CCCCNC(=O)CCOCCOCCOCCOCCOCCn1cc(CCC(=O)NCCCC[C@@H]3NC(=O)[C@H](CCC(N)=O)NC(=O)[C@@H]4CSCCC(=O)N5CN(CN(C5)C(=O)CCSC[C@@H](C(=O)N5CCC[C@H]5C(=O)N[C@@H](CO)C(=O)N[C@@H](Cc5c[nH]cn5)C(N)=O)NC(=O)[C@H](CC(C)C)NC(=O)[C@H](Cc5c[nH]cn5)NC(=O)[C@H](CC(C)C)NC3=O)C(=O)CCSC[C@H](NC(=O)[C@H](CCCCN)NC(=O)[C@H](CC(=O)O)NC(=O)[C@H](CO)NC(C)=O)C(=O)N[C@@H](CO)C(=O)N[C@@H](C)C(=O)NCC(=O)N[C@@H](Cc3c[nH]c5ccccc35)C(=O)N[C@@H](CC(C)C)C(=O)N[C@@H]([C@@H](C)O)C(=O)N[C@@H](CCSC)C(=O)N4)nn1)C(=O)N1CCC[C@H]1C(=O)N[C@@H](Cc1ccc(O)cc1)C(=O)N2 [BCY11380] |  | 7 fold
CCCC[C@@H]1NC(=O)[C@H](Cc2ccc(O)cc2)NC(=O)[C@@H]2CCCN2C(=O)[C@H](CC(=O)O)NC(=O)[C@H](C)NC(=O)[C@H](Cc2ccccc2)NC(=O)[C@@H]2CSCCC(=O)N3CN(CN(C3)C(=O)CCSC[C@@H](C(=O)N[C@@H](CNC(=O)CCOCCOCCOCCOCCOCCOCCOCCOCCOCCOCCOCCOCCn3cc(CCC(=O)NCCC(=O)N(C)CC(=O)N(C)CC(=O)N(C)CC(=O)N(C)CC(=O)N(C)CC(=O)N(C)CC(=O)N(C)CC(=O)N(C)CC(=O)N(C)CC(=O)N(C)CC(=O)N[C@@H](CO)C(=O)N[C@@H](CC(=O)O)C(=O)N[C@@H](CCCCN)C(=O)N[C@H]4CSCCC(=O)N5CN6CN(C5)C(=O)CCSC[C@H](NC(=O)[C@H](CCSC)NC(=O)[C@H]([C@@H](C)O)NC(=O)[C@H](CC(C)C)NC(=O)[C@H](Cc5c[nH]c7ccccc57)NC(=O)CNC(=O)[C@H](C)NC(=O)[C@H](CO)NC4=O)C(=O)N[C@@H](CCC(N)=O)C(=O)N[C@@H](CCCCN)C(=O)N[C@@H](CC(C)C)C(=O)N[C@@H](Cc4c[nH]cn4)C(=O)N[C@@H](CC(C)C)C(=O)N[C@H](C(N)=O)CSCCC6=O)nn3)C(N)=O)NC1=O)C(=O)CCSC[C@H](NC(C)=O)C(=O)N[C@@H](CC(C)(C)C)C(=O)N1CCC[C@H]1C(=O)N[C@@H](CCC(=O)O)C(=O)N[C@H](C)C(=O)N1CCC[C@H]1C(=O)N[C@@H](Cc1ccc(O)cc1)C(=O)N2 [BCY10580] | 28 nM | 3 fold
